Laboratory results published in patent US20250073255A1, “USE OF FA-TYPE LIPID COMPOUNDS IN PREPARATION OF NUCLEIC ACID DELIVERY REAGENT AND RELATED PRODUCT” (BEIJING BAISHIKANG PHARMACEUTICAL TECHNOLOGY (BSJPHARMA) …, priority 2021, published 2025).

Tested on: C57BL/6 male mice
Test: In vivo delivery study of lipid nucleic acid mixture (oral gavage, RT-qPCR of PGY-sRNA-26 in tissues)
Design: species or system mouse
Conditions: 100 μg lipid:10 nmol PGY-sRNA-26, sampled after 12 hours; for oral delivery of single-stranded sRNA nucleic acids into mouse heart tissue: vs free uptake group; for oral delivery of single-stranded sRNA nucleic acids into mouse intestinal tissue: intestine; for oral delivery of single-stranded sRNA nucleic acids into mouse pancreatic tissue: pancreas
Outline: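 Stem-loop RT and SYBR qPCR, normalized to U6, measured PGY-sRNA-26 in blood and organs 12 h after gavage. Dosing was 10 nmol sRNA with 100 μg lipid, pre-mixed and heated 15 min at 90 °C, in 12-h-fasted mice, against saline and free-sRNA groups.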

CCCCCC/C=C\CCCCCCCC(=O)OCCCCCCCCCCCCCCCCCCCCCC [Lipid 823, docosyl (Z)-hexadec-9-enoate]
can effectively orally deliver: oral delivery of single-stranded sRNA nucleic acids into mouse blood | oral delivery of single-stranded sRNA nucleic acids into mouse brain tissue | oral delivery of single-stranded sRNA nucleic acids into mouse femur | oral delivery of single-stranded sRNA nucleic acids into mouse heart tissue | oral delivery of single-stranded sRNA nucleic acids into mouse intestinal tissue | oral delivery of single-stranded sRNA nucleic acids into mouse kidney tissue | oral delivery of single-stranded sRNA nucleic acids into mouse liver tissue | oral delivery of single-stranded sRNA nucleic acids into mouse lung tissue | oral delivery of single-stranded sRNA nucleic acids into mouse pancreatic tissue | oral delivery of single-stranded sRNA nucleic acids into mouse spleen tissue | oral delivery of single-stranded sRNA nucleic acids into mouse stomach tissue

CC/C=C\C/C=C\C/C=C\CCCCCCCC(=O)OCCCCCCCCCCCCCC [Lipid 824, tetradecyl (9Z,12Z,15Z)-octadeca-9,12,15-trienoate]
can effectively orally deliver: oral delivery of single-stranded sRNA nucleic acids into mouse blood | oral delivery of single-stranded sRNA nucleic acids into mouse brain tissue | oral delivery of single-stranded sRNA nucleic acids into mouse femur | oral delivery of single-stranded sRNA nucleic acids into mouse heart tissue | oral delivery of single-stranded sRNA nucleic acids into mouse intestinal tissue | oral delivery of single-stranded sRNA nucleic acids into mouse kidney tissue | oral delivery of single-stranded sRNA nucleic acids into mouse liver tissue | oral delivery of single-stranded sRNA nucleic acids into mouse lung tissue | oral delivery of single-stranded sRNA nucleic acids into mouse pancreatic tissue | oral delivery of single-stranded sRNA nucleic acids into mouse spleen tissue | oral delivery of single-stranded sRNA nucleic acids into mouse stomach tissue

CCCCCC/C=C\CCCCCCCC(=O)OCCCCCCCCCCCCCCCCCCCCCCC [Lipid 825, tricosyl (Z)-hexadec-9-enoate]
can effectively orally deliver: oral delivery of single-stranded sRNA nucleic acids into mouse blood | oral delivery of single-stranded sRNA nucleic acids into mouse brain tissue | oral delivery of single-stranded sRNA nucleic acids into mouse femur | oral delivery of single-stranded sRNA nucleic acids into mouse heart tissue | oral delivery of single-stranded sRNA nucleic acids into mouse intestinal tissue | oral delivery of single-stranded sRNA nucleic acids into mouse kidney tissue | oral delivery of single-stranded sRNA nucleic acids into mouse liver tissue | oral delivery of single-stranded sRNA nucleic acids into mouse lung tissue | oral delivery of single-stranded sRNA nucleic acids into mouse pancreatic tissue | oral delivery of single-stranded sRNA nucleic acids into mouse spleen tissue | oral delivery of single-stranded sRNA nucleic acids into mouse stomach tissue
